System: 922993-354-T-J3-PDC complex spheroids, viability, % test/control
Test: Anticancer human tumor 922993-354-T-J3-PDC patient-derived endometrial carcinoma cell line growth inhibition [CLK]
Conditions: for IC50: curve of first compound; for viability, T/C: stronger effect = lower value
Summary of the method: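 Multi-cell-type spheroids combined patient-derived tumor cells with HUVEC endothelial cells and human mesenchymal stem cells. Paired agents were dosed in half-log steps down from about clinical Cmax, or from 10 microM where Cmax was unknown.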
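Also: spheroids exposed to the agents for 7 days before readout.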

Compound `CC(Nc1ccc2c(c1)OCCn1cc(N3C(=O)OCC3C(F)F)nc1-2)C(N)=O` (configuration not stated) + CN1CCN(c2cc(C(=O)Nc3cc4cc(-c5cnn(C)c5)ccc4cn3)ccn2)CC1 has an IC50 (second compound 0.0316 µM) of 2730 nM, an IC50 (second compound 0.1 µM) of 1120 nM and an IC50 (second compound 0.316 µM) of 59.6 nM. It also gave an IC50 (second compound 1 µM) of under 31.6 nM, an IC50 (second compound 3.16 µM) of under 31.6 nM and an IC50 (second compound 10 µM) of under 31.6 nM. For the same compound, the viability, T/C (second compound 0.0316 µM, first compound 0.0316 µM) was 110%, the viability, T/C (second compound 0.0316 µM, first compound 0.1 µM) was 105% and the viability, T/C (second compound 0.0316 µM, first compound 0.316 µM) was 84.8%. It also gave a viability, T/C (second compound 0.0316 µM, first compound 1 µM) of 67.8%, a viability, T/C (second compound 0.0316 µM, first compound 3.16 µM) of 48.7% and a viability, T/C (second compound 0.0316 µM, first compound 10 µM) of 25.6%. It also gave a viability, T/C (second compound 0.1 µM, first compound 0.0316 µM) of 109%, a viability, T/C (second compound 0.1 µM, first compound 0.1 µM) of 97.6% and a viability, T/C (second compound 0.1 µM, first compound 0.316 µM) of 91%. For the same compound, the viability, T/C (second compound 0.1 µM, first compound 1 µM) was 50.3%, the viability, T/C (second compound 0.1 µM, first compound 3.16 µM) was 34.7% and the viability, T/C (second compound 0.1 µM, first compound 10 µM) was 27.2%. The viability, T/C (second compound 0.316 µM, first compound 0.0316 µM) was 49.6%, the viability, T/C (second compound 0.316 µM, first compound 0.1 µM) was 55% and the viability, T/C (second compound 0.316 µM, first compound 0.316 µM) was 28.7%. The viability, T/C (second compound 0.316 µM, first compound 1 µM) was 23.4%, the viability, T/C (second compound 0.316 µM, first compound 3.16 µM) was 16.8% and the viability, T/C (second compound 0.316 µM, first compound 10 µM) was 6.83%. The viability, T/C (second compound 1 µM, first compound 0.0316 µM) was 0.15%, the viability, T/C (second compound 1 µM, first compound 0.1 µM) was 0.13% and the viability, T/C (second compound 1 µM, first compound 0.316 µM) was 1.42%. The viability, T/C (second compound 1 µM, first compound 1 µM) was 0.08%, the viability, T/C (second compound 1 µM, first compound 3.16 µM) was 0.07% and the viability, T/C (second compound 1 µM, first compound 10 µM) was 1.09%. The viability, T/C (second compound 3.16 µM, first compound 0.0316 µM) was 0.09%, the viability, T/C (second compound 3.16 µM, first compound 0.1 µM) was 0.57% and the viability, T/C (second compound 3.16 µM, first compound 0.316 µM) was 0.75%. It also gave a viability, T/C (second compound 3.16 µM, first compound 1 µM) of 0.83%, a viability, T/C (second compound 3.16 µM, first compound 3.16 µM) of 1.91% and a viability, T/C (second compound 3.16 µM, first compound 10 µM) of 1.61%. The viability, T/C (second compound 10 µM, first compound 0.0316 µM) was 0.09%, the viability, T/C (second compound 10 µM, first compound 0.1 µM) was 0.13% and the viability, T/C (second compound 10 µM, first compound 0.316 µM) was 1.44%. For the same compound, the viability, T/C (second compound 10 µM, first compound 1 µM) was 0.18%, the viability, T/C (second compound 10 µM, first compound 3.16 µM) was 1.19% and the viability, T/C (second compound 10 µM, first compound 10 µM) was 1.25%.
